How the values were obtained:
[1] = system: 7D4 mAb (mouse monoclonal anti-prometryn antibody); experiment: ic-ELISA cross-reactivity of the 7D4 mAb with triazines; format: binding; conditions: for Cross-Reactivity: relative to prometryn = 100%
Experimental: (§1) The ic-ELISA method was used to screen the best-performing fusion mouse sera. They were used to establish the standard curve of antibodies by detecting the supernatant of positive cells. The buffer required for ic-ELISA was the same as previously reported. The specific steps of the operation are as follows: (1) The coated antigen was added to the microplate by diluting it with the required coating solutions (CBS, pH 9.6, 0.05 mol/L). Each well contained 100 µL, which was incubated at 37 °C for three h before being washed three times with washing buffer (PBST, PBS containing 0.1% Tween-20). (2) With sample dilution buffer (PBSTG, PBST containing 0.1% gelatin), the standard prometryn sample and the antiserum/antibody from mice were diluted to the required concentration. The microplate was incubated for 30 min at 37 °C with 50 µL of diluted antiserum or antibody and standard samples of various concentrations. PBST was used three times to wash the dishes. (3) Then, 100 µL of PBSTG-diluent IgG HRP (labeled goat anti-mouse IgG with HRP) was added to each well. After 30 min at 37 °C, the plate was cleaned three times with PBST. (4) Each well was incubated for 15 min in the dark at 25 °C with 100 µL of TMB color developing solution. To stop the reaction, 50 µL of the hydrochloric acid solution was added to each well. The absorbance at OD450 nm was measured with a TECAN Infinite M200 PRO microplate reader from Männedorf, Switzerland.
(§2) The ic-ELISA method was used to determine the ideal antibody and antigen mix. The coating antigen and antibody concentration used in the experiment was 1 mg/mL. The dilution multiples of the coating were 1 × 10^3, 2 × 10^3, 4 × 10^3, and 8 × 10^3. The prometryn standard was 1000 ng/mL. The best concentration combination of antigen and antibody was selected to establish the standard curve of the antibody. Prometryn standards were diluted to 1000, 500, 250, 125, 62.5, 31.25, 15.625, 7.8125, 3.90625, and 0 ng/mL, with PBSTG for subsequent ic-ELISA experiments. The standard curve was determined by ic-ELISA. […] Each measured OD value in the curve is the average of three independent repeats. The 7D4 mAb’s inhibition rate was well linearly correlated with the prometryn concentration. […] The 7D4 mAb type was identified as IgG1 using a mouse antibody isotyping kit from Sigma®, St. Louis, MO, USA.
Eleven triazine herbicides were selected to determine their cross-reactivity with 7D4 mAb. […] The cross-reaction rate with the other seven triazines was less than 1%. The hybridoma cell line 7D4 screened in this study can specifically recognize prometryn. […] The cross-reaction rate may vary depending on the immunoassay format and the competitive hapten preparation used.

7D4 mAb = experiment: ic-ELISA optimal combination of coated antigen and antibody (Table S3); format: binding, mouse; conditions: prometryn 1000 ng/mL
Experimental: as §1, §2

With `CSc1nc(NC(C)C)nc(NC(C)C)n1` [Prometryn, 2-methylthio-4,6-di(isopropylamino)-1,3,5-triazobenzene] as the molecule, how does the IC50 ([1]; ic-ELISA, analyte 1000-15.625 and 0 ng/mL) read?
Its IC50 is 3.901 ng/mL.

And the Cross-Reactivity [1]?
Its Cross-Reactivity is 100%.

What about the Cross-Reactivity ([1]; listed as prometryn) of the same molecule?
Its Cross-Reactivity is 100%.

What about the “IR (inhibition rate)” value (7D4 mAb; dilution of immunogen 1×103, dilution of serum 1.6×104) of the same molecule?
The value was 94%.

And the “IR (inhibition rate)” value (7D4 mAb; dilution of immunogen 1×103, dilution of serum 2×103)?
Its value is 97%.

What about the “IR (inhibition rate)” value (7D4 mAb; dilution of immunogen 1×103, dilution of serum 3.2×104) of the same molecule?
Its value is 92%.

And the “IR (inhibition rate)” value (7D4 mAb; dilution of immunogen 1×103, dilution of serum 4×103)?
Its value is 98%.

And the “IR (inhibition rate)” value (7D4 mAb; dilution of immunogen 1×103, dilution of serum 8×103)?
The value was 97%.

And the “IR (inhibition rate)” value (7D4 mAb; dilution of immunogen 2×103, dilution of serum 1.6×104)?
The value was 92%.

And the “IR (inhibition rate)” value (7D4 mAb; dilution of immunogen 2×103, dilution of serum 2×103)?
The value was 98%.

What about the “IR (inhibition rate)” value (7D4 mAb; dilution of immunogen 2×103, dilution of serum 3.2×104) of the same molecule?
Its value is 85%.

And the “IR (inhibition rate)” value (7D4 mAb; dilution of immunogen 2×103, dilution of serum 4×103)?
Its value is 97%.

And the “IR (inhibition rate)” value (7D4 mAb; dilution of immunogen 2×103, dilution of serum 8×103)?
The value was 96%.

And the “IR (inhibition rate)” value (7D4 mAb; dilution of immunogen 4×103, dilution of serum 1.6×104)?
The value was 81%.

What about the “IR (inhibition rate)” value (7D4 mAb; dilution of immunogen 4×103, dilution of serum 2×103) of the same molecule?
The value was 97%.

And the “IR (inhibition rate)” value (7D4 mAb; dilution of immunogen 4×103, dilution of serum 3.2×104)?
The value was 71%.

What about the “IR (inhibition rate)” value (7D4 mAb; dilution of immunogen 4×103, dilution of serum 4×103) of the same molecule?
The value was 95%.

What about the “IR (inhibition rate)” value (7D4 mAb; dilution of immunogen 4×103, dilution of serum 8×103) of the same molecule?
Its value is 90%.

What about the “IR (inhibition rate)” value (7D4 mAb; dilution of immunogen 8×103, dilution of serum 1.6×104) of the same molecule?
Its value is 67%.

And the “IR (inhibition rate)” value (7D4 mAb; dilution of immunogen 8×103, dilution of serum 2×103)?
The value was 93%.

And the “IR (inhibition rate)” value (7D4 mAb; dilution of immunogen 8×103, dilution of serum 3.2×104)?
The value was 55%.

And the “IR (inhibition rate)” value (7D4 mAb; dilution of immunogen 8×103, dilution of serum 4×103)?
The value was 90%.

What about the “IR (inhibition rate)” value (7D4 mAb; dilution of immunogen 8×103, dilution of serum 8×103) of the same molecule?
Its value is 82%.

— paper PMC9855386, “Obtaining a Monoclonal Antibody against a Novel Prometryn-Like Hapten and Characterization of Its Selectivity for Triazine Herbicides” (Biosensors, 2022)
